Earlier results in patent publication US6340484B1, “Compositions containing neem seed extracts and saccharide” (E.I.D. Parry (India) Limited, priority 2000, dated 2002).
Read-outs that look alike come from different tables or passages of the source.

Details: 25 days at 29+/−1° C.

C/C=C(\C)C(=O)O[C@H]1C[C@@H](OC(C)=O)[C@@]2(C(=O)OC)CO[C@H]3[C@@H](O)[C@@](C)([C@]45O[C@@]4(C)[C@@H]4C[C@H]5O[C@@H]5OC=C[C@@]54O)[C@H]4[C@]1(CO[C@]4(O)C(=O)OC)[C@@H]32 [azadirachtin A]
degradation of azadirachtin A (in acetone): 50%
degradation of azadirachtin A (in carbon tetrachloride): 75-80%
degradation of azadirachtin A (in chloroform): 75-80%
degradation of azadirachtin A (in ethanol): about 85%
degradation of azadirachtin A (in methanol): 50%
degradation of azadirachtin A (in methylene chloride): 75-80%
degradation of azadirachtin A (in water): about 85%
